Like-named read-outs stand apart in the source and are kept apart here.
What was measured:
[1] = Precipitation / solubility in cell culture medium; format: physicochemical
Protocol: (§1) The rhabdoid cell line (MON) (88) was cultured in RPMI 1640 supplemented with 10% fetal bovine serum, 2 mM L-glutamine, 50 U/ml penicillin, and 50 μg/ml streptomycin at 37° C. with 5% CO2 and 95% humidified air. 4-(Fenretinide) was either obtained from NCI or synthesized in house. Fenretinide or its synthetic derivatives were reconstituted in 100% ethanol as a 10 mM solution and the aliquots were stored frozen at −80° C., protected from light. Working solutions (50 μM or 200 μM) and serial dilutions were prepared by diluting the stock solution with culture medium, such that the concentration of ethanol was <2% in all dilutions.

[2] = test system: MON cells; assay: FACS analysis of cell cycle and sub-G1 (apoptosis); format: cell-based; conditions: 2 days
Protocol: FIG. 3A-3B. Induction of cell cycle arrest and apoptosis by halogen derivatives of fenretinide. A. Cell cycle profile determined by FACS analysis of MON cells treated with either 5 or 10 μM concentrations of fenretinide and its derivatives for 2 days. Percentage of cells at various stages of cell cycle (G1, S and G2) is indicated. B. Percentage of MON cells at sub-G1 when exposed for 2 days to fenretinide and its derivatives.
FIG. 4A-4B. Induction of cell cycle arrest and apoptosis by peptidomimetic derivatives of fenretinide. A. Cell cycle profile determined by FACS analysis of MON cells treated with either 5 or 10 μM concentrations of fenretinide and its derivatives for 2 days. Percentage of cells at various stages of cell cycle (G1, S and G2) is indicated. B. Percentage of MON cells at sub-G1 when exposed for 2 days to fenretinide and its derivatives.
(§2) The effects of fenretinide, halogen substitutes, and peptidomimetic derivatives on cell cycle regulation and apoptosis were tested by using: i) cell survival assay (MTS); ii) FACS analysis; and iii) immunoblot analysis to determine the effect on Cyclin D1.

[3] = test system: MON (INI1−/−) rhabdoid tumor cells; assay: MTS survival assay of rhabdoid tumor cells; format: cell-based
Protocol: FIG. 1A-1D. Effect of 4HPR derivatives with phenyl group substitutions on survival of rhabdoid tumors cells. MON (INI1−/−) cells were treated with serial dilutions of the 4HPR, ATRA and 4HPR derivatives for three days. Survival assay was carried out as described using MTS assay kit. Percentage of cell survival plotted against concentration of drugs (Mean+/−SEM).
FIG. 2. Effect of fenretinide peptidomimitic derivatives on the survival of rhabdoid tumor cells in culture. % survival of MON rhabdoid tumor cells treated with fenretinide derivatives, when compared to the vehicle treated control. The data in all the panels represent the average of triplicate experiments, and the standard error is indicated.
as §1
Aliquots of 8×10^3 MON cells were plated in 96-well microdilution plates. Twenty four hours after seeding, the cells were treated with serial dilutions of each drug. Following incubation for 24 or more hours, each well was stained with 20 μl of MTS [3-(4,5-dimethylthiazol-2-yl)-5-(3-carboxymethoxyphenyl)-2-(4-sulfophenyl)-2H-tetrazolium, inner salt] that was mixed 20:1 V/V in PMS (phenazine methosulphate, CellTiter 96® AQueous Non-Radioactive Cell Proliferation Assay Kit, Promega, Madison, Wis.) added to each of the well in the microtiter plate containing 100 μl of culture medium. After 4 h incubation, the plates were analyzed by an ELISA plate reader (Wallac Victor, 1420 Multilabel Counter, Perkin Elmer) at 490 nm wave-length. Cell plating, drug treatment and survival assay were performed using the epMotion 5070 automated liquid handling robotic system (Eppendorff, Westbury, N.Y.).
Statistical analysis of the data was carried out using GraphPad Prism (San Diego, Calif.). Relative IC50 values were calculated using the nonlinear regression curve fit with sigmoidal dose response (variable slope) function. Relative IC50 is defined as the concentration giving a response exactly half way between the fitted top and bottom of the survival curve when graphed as percent inhibition versus the log of the concentration of compound. The fitting error, or standard error describes the error involved in fitting the curve.

[4] = 200 mg/day (MTD), breast cancer patients, literature (ref 3); cited from earlier work
[5] = test system: MON (INI1−/−) rhabdoid tumor cells; assay: MTS survival assay of rhabdoid tumor cells; format: cell-based; conditions: charcoal adsorbed serum
[6] = test system: Cyclin D1; assay: Immunoblot analysis of Cyclin D1 expression; format: cell-based; conditions: biomarker expression, Table 3
Protocol: FIG. 5A-5B. Effect of fenretinide, its derivatives and peptidomimetic compounds on expression of Cyclin D1. Immunoblot analysis to determine the effect of fenretinide and its halogen substitutes (A) and peptidomimetic compounds (B). GAPDH is a loading control.
This assay was performed using a routine laboratory protocol as previously described using chemiluminescence detection method (30). The following antibodies were used: polyclonal α-cyclin D1 Ab-3 (NeoMarkers, Cat# RB-010-P0), monoclonal α-cyclin D1 DCS-6 (NeoMarkers, Cat# MS-210-P1), α-β-Actin (Sigma Cat# A5441) and α-Tubulin-α (Sigma, Cat # T5168).
as §2

[7] = test system: tumor cell; conditions: in vitro, literature (ref 1); read-out: IC50s, suppression of tumor cell growth in vitro; cited from earlier work
[8] = MON cells, nonlinear regression, sigmoidal dose response, read-out: Relative IC50
[9] = MON rhabdoid cells, survival assay, values in text, read-out: IC50
[10] = regular FBS, read-out: IC50 (in regular FBS)

| Molecule | behaviour in cell culture medium (precipitation / insolubility) [1] | % G1 ([2]; 5 μM, Table 6) | % G2 ([2]; 5 μM, Table 6) | % S ([2]; 5 μM, Table 6) | SubG1 (percentage of MON cells at sub-G1) ([2]; 5 μM, Table 6) | % G1 ([2]; 10 μM, Table 6) | % G2 ([2]; 10 μM, Table 6) | % S ([2]; 10 μM, Table 6) | SubG1 (percentage of MON cells at sub-G1) ([2]; 10 μM, Table 6) | IC50 [3, 8] | IC50 [3, 9] | IC50 [3, 10] | IC50 [5] | further results |
| --- | --- | --- | --- | --- | --- | --- | --- | --- | --- | --- | --- | --- | --- | --- |
| CC1=C(/C=C/C(C)=C/C=C/C(C)=C/C(=O)Nc2ccc(O)cc2)C(C)(C)CCC1 [Compound 4-HPR, N-(4-hydroxyphenyl)retinamide, reference compound] |  | 86.32% | 6.49% | 6.95% | 37.12% | 85.41% | 7.60% | 8.02% | 73.98% | 14.7 µM | ~15 µM | 12 to 19 µM | 2 µM | % G1 ([2]; 5 μM, Table 5): 86.32%; % G2 ([2]; 5 μM, Table 5): 6.73%; % S ([2]; 5 μM, Table 5): 6.95%; SubG1 (percentage of MON cells at sub-G1) ([2]; 5 μM, Table 5): 37.12%; % G1 ([2]; 10 μM, Table 5): 85.41%; % G2 ([2]; 10 μM, Table 5): 6.66%; % S ([2]; 10 μM, Table 5): 7.93%; SubG1 (percentage of MON cells at sub-G1) ([2]; 10 μM, Table 5): 73.98%; IC50 ([3]; MON cells, three days, compounds in FIG. 1A-1D, concentration of drug required to kill 50% of cells, read-out: IC50): 19 µM; plasma concentration [4]: 1000 nM; Repression of Cyclin D1 [6]: Yes; IC50 [7]: 1 to 10 µM |
| (2E,4E,6E,8E)-[3,7-Dimethyl-9-(2,6,6-trimethyl-1-cyclohexenyl)-nona-2,4,6,8-tetraenoylamino]-(3-nitro, 4-hydroxy)phenylamide [5(k)] | insoluble in cell culture medium |  |  |  |  |  |  |  |  |  |  |  |  |  |
| CC1=C(/C=C/C(C)=C/C=C/C(C)=C/C(=O)Nc2ccc(I)cc2)C(C)(C)CCC1 [5(d), (2E,4E,6E,8E)-[3,7-Dimethyl-9-(2,6,6-trimethyl-1-cyclohexenyl)-nona-2,4,6,8-tetraenoylamino]-(4-iodo)phenylamide] | precipitated in cell culture medium |  |  |  |  |  |  |  |  |  |  | > 50 µM | > 15 µM |  |

Second part, led by results:

| behaviour in cell culture medium (precipitation / insolubility) [1] | Molecule | % G1 ([2]; 5 μM, Table 6) | % G2 ([2]; 5 μM, Table 6) | % S ([2]; 5 μM, Table 6) | SubG1 (percentage of MON cells at sub-G1) ([2]; 5 μM, Table 6) | % G1 ([2]; 10 μM, Table 6) | % G2 ([2]; 10 μM, Table 6) | % S ([2]; 10 μM, Table 6) | SubG1 (percentage of MON cells at sub-G1) ([2]; 10 μM, Table 6) | IC50 [3, 8] | IC50 [3, 9] | IC50 [3, 10] | IC50 [5] | further results |
| --- | --- | --- | --- | --- | --- | --- | --- | --- | --- | --- | --- | --- | --- | --- |
| insoluble in cell culture medium | COc1ccc(NC(=O)/C=C(C)/C=C/C=C(C)/C=C/C2=C(C)CCCC2(C)C)cc1 [5(f), (2E,4E,6E,8E)-[3,7-Dimethyl-9-(2,6,6-trimethyl-1-cyclohexenyl)-nona-2,4,6,8-tetraenoylamino]-(4-methoxy)phenylamide] |  |  |  |  |  |  |  |  |  |  |  |  |  |
| precipitated in cell culture medium | CCC1=C(C)/C(=C/c2ccc(C(=O)Nc3ccc(O)cc3)cc2)CCC1(C)C [Compound 11a, (E)-4-((3-ethyl-2,4,4-trimethylcyclohex-2-enylidene)methyl)-N-(4-hydroxyphenyl)benzamide] | 59.33% | 26.19% | 14.49% | 53.97% | 60.40% | 22.84% | 16.76% | 62.59% |  |  |  |  |  |
| did not show any precipitation | CCC1=C(C)/C(=C/c2ccc(C(=O)Nc3ccc(O)c(I)c3)cc2)CCC1(C)C [Compound 11d, (E)-4-((3-ethyl-2,4,4-trimethylcyclohex-2-enylidene)methyl)-N-(4-hydroxy-3-iodophenyl)benzamide] |  |  |  |  |  |  |  |  | 3.15 µM | 3 µM |  |  | cytotoxic activity against rhabdoid tumor cells (in words) ([3]; compared with 4-HPR): more active when compared to parent Fenretinide |
